Source: US10286038B2, “Lysosome membrane protein 2 (LIMP-2) based peptides and related uses” (Northwestern University, priority 2016, dated 2019)
Where a chain is given by its changes, count along the chain named.

Key:
[1] = molecular target: T1, recombinant N370S mutant GC (Homo sapiens, UniProt P04062, N409S); experiment: peptide pulldown of recombinant N370S mutant GC; format: binding; conditions: cell-free system
T1 sequence (P04062 40-536 N409S): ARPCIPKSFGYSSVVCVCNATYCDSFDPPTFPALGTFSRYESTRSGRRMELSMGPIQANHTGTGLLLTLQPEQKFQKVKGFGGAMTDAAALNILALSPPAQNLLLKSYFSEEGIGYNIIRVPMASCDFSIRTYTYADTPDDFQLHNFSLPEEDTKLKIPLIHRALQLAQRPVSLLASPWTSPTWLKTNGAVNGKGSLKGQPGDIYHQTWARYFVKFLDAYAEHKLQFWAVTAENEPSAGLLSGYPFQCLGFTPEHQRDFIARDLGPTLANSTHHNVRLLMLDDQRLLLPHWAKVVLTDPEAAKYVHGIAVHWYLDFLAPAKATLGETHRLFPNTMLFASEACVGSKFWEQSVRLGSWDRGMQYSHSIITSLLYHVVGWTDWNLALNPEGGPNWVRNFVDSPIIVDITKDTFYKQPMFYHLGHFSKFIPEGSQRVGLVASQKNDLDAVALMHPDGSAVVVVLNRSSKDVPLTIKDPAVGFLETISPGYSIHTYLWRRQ
Description: For the pulldown of recombinant protein utilizing LIMP-2-derived peptides, 2 nmol of protein (GC, LAMAN and BSA) was incubated overnight at 4° C. with the ten-fold molecular amount (20 nmol) of biotinylated LIMP-2-derived peptides (helix 5, 3×D as well as TAT-peptides (see Table 1)) at neutral pH. The total incubation volume was 250 μl (50 mM NaPhosphate buffer, 150 mM NaCl, pH7). ‘High Capacity Streptavidin Beads’ (Thermo Fisher Scientific, Waltham, USA) were blocked with 1% BSA solution and equilibrated with the NaPhosphate buffer. For each pulldown 50 μl of beads were utilized and incubated with 200 μl enzyme/peptide mixture for 30 min. at room temperature. The remaining 50 μl of the enzyme/peptide samples were prepared for SDS-PAGE (INPUT fraction). After incubation of the beads with the enzyme/peptide mixture the samples were centrifuged for 1 min. at 1,500×g at 4° C. The supernatant was removed and stored at 4° C. (UNBOUND fraction). Subsequently, the beads were washed three times with NaPhosphate buffer followed by centrifugation at 4,000 rpm at room temperature. […] The INPUT and BOUND fractions of the pulldown experiments were loaded on a NuPAGE® Novex® 4-12% Bis-Tris gels (Thermo Fisher Scientific, Waltham, USA), subjected to electrophoresis and stained with coomassie (Brilliant Blue, R-250; BioRad). After destaining the gels were scanned.

GC in H4 cells = molecular target: T2, GC in H4 cells (Homo sapiens, UniProt P04062); experiment: whole cell GC activity of H4 cell lysate over the 74 hrs time course; format: cell-based; conditions: H4 cells incubated with TAT-peptide
T2 construct: Lysosomal GC activity of living H4 cells measured in vivo after incubation with uptake-optimized TAT-peptides; endogenous in cells; host or cells: H4 human neuroglioma cells (for the 74 h course: stably overexpressing α-synuclein)
T2 sequence (P04062 40-536): T1 sequence (P04062 40-536 N409S) with S370N
Description: FIG. 6: Characterization of a helical LIMP-2-derived peptide. […] B) In vitro peptide pulldown assay: helix 5 peptides were incubated with recombinant LAMAN and bovine serum albumin (BSA). INPUT and BOUND fractions were loaded onto SDS-PAGE and proteins visualized by coomassie staining (CBB). C) Densitometry of LAMAN and BSA protein bound to peptide, normalized to protein fraction bound to beads only (buffer; n=2-3). D) and E) Activity assay of recombinant (D) GC and (E) LAMAN incubated with different excess molarities (1×-10×) of helix 5 peptide (n=β-5) and LIMP-2 ectodomain (n=4). GC activities were normalized and statistical analyses compared to 0 input of BSA/helix 5 peptide. F) Peptide-pulldown of GC constructs overexpressed in N2a cells with subsequent Western blot analysis (α-hGC) utilizing helix 5 and the 3×D control peptide as a negative binding control. G) Densitometry of GC protein bound to peptides; each construct is normalized to buffer only. H) Live-cell lysosomal GC activity of H4 cells after uptake of helix 5 and 3×D TAT peptides. GC activity was measures every 30 minutes up to 3.5 hours. Cells were treated with DMSO or the “lysosomal inhibitor” bafilomycinA1. […] Lysosomal activity is calculated by subtracting the AUC of DMSO with the AUC of bafilomycinA1 treated samples (n=4). […] GC activity was measured from 16-74 hours and is shown in mU/mg (n=3). […]

Q: For “Biotin-Ttds-KFERQLREIIEAMLKAYQQKLFVTHTVDEYGRKKRRQRRR [helix 5 TAT-peptide]”, which “precipitation of recombinant N370S mutant GC” value [1] is on record?
A: as efficiently as recombinant wild-type GC

Q: What about the “enhancement of GC activity over the 74 hrs time course” value (GC in H4 cells) of the same substance?
A: persists
